The results in this text go back to patent US8802720B2, “Acylamino-substituted fused cyclopentanecarboxylic acid derivatives and their use as pharmaceuticals” (SANOFI, priority 2008, dated 2014).

For the experiment, the target named is human Edg-2 receptor (LPA1 receptor) (Homo sapiens, UniProt Q92633). Kind of experiment: Edg-2 receptor inhibition by FLIPR calcium fluorescence measurement (LPA-mediated calcium liberation). It is filed as cell-based. The conditions noted are these: CHO cells stably overexpressing human Edg-2 receptor; LPA 18:1 100 nM; fluo-4 fluorescence; triplicate; read-out: Inhibitory concentrations IC50 for inhibition of the Edg-2 receptor. In short, it runs like this:
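CHO cells stably overexpressing human Edg-2 were fluo-4 loaded and pre-incubated ~5 min with compound (≤0.3% DMSO) in HBSS/HEPES/probenecid, pH 7.5. Then LPA 18:1 at 100 nM final was added. Peak calcium fluorescence over ~3 min, baseline-corrected versus DMSO, gave % inhibition in triplicate and IC50.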

Sequence of human Edg-2 receptor (LPA1 receptor) (Q92633 whole entry): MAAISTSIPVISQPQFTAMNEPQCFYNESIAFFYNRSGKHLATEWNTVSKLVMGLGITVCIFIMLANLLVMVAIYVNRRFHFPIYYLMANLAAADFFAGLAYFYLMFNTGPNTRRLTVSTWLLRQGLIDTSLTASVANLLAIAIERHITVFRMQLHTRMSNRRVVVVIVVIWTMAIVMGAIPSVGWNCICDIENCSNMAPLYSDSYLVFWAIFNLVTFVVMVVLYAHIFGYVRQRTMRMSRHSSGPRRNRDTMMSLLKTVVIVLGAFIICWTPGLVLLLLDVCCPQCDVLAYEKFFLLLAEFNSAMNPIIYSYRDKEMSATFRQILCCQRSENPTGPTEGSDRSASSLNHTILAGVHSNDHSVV

As for `COc1ccc(C(=O)NC2(C(=O)O)Cc3ccccc3C2)cc1OCC1CCCC1` [Example 42], the IC50 is 1000 to 30000 nM.

For `O=C(NC1(C(=O)O)Cc2ccccc2C1)c1ccc(C(F)(F)F)c(OCCc2cc(C(F)(F)F)ccc2F)c1` [Example 191], the IC50 is less than 100 nM.

Turning to `COc1ccc(C(=O)NC2(C(=O)O)Cc3ccccc3C2)cc1OCCCc1ccc(Cl)cc1` [Example 62], the IC50 is 1000 to 30000 nM.

For the compound `COc1ccc(C(=O)NC2(C(=O)O)Cc3ccccc3C2)cc1OCC1(c2ccccc2)COC1` [Example 250, 2-[4-Methoxy-3-(3-phenyl-oxetan-3-ylmethoxy)-benzoylamino]-indane-2-carboxylic acid], the IC50 was less than 100 nM.

With `COc1ccc(C(=O)NC2(C(=O)O)Cc3ccccc3C2)cc1OCCc1cc(C)ccc1C` [Example 140], the IC50 lay within 1000 to 30000 nM.

As for `COc1ncc(C(=O)NC2(C(=O)O)Cc3ccccc3C2)cc1-c1cccc(C(F)(F)F)c1F` [Example 230], the IC50 was less than 100 nM.

Consider `COc1ccc(C(=O)NC2(C(=O)O)Cc3ccccc3C2)cc1OCCC1CC1` [Example 86], for which the IC50 was 1000 to 30000 nM.

`COc1ccc(C(=O)NC2(C(=O)O)Cc3ccccc3C2)cc1OCCc1ccccc1C` [Example 134]: the IC50 lay in the range of 1000 to 30000 nM.

Consider `COc1ccc(C(=O)NC2(C(=O)O)Cc3ccccc3C2)cc1OCCc1cccc(O)c1` [Example 251, 2-{3-[2-(3-Hydroxy-phenyl)-ethoxy]-4-methoxy-benzoylamino}-indane-2-carboxylic acid], for which the IC50 was in the range of 1000 to 30000 nM.

For `COc1c(F)cc(C(=O)NC2(C(=O)O)Cc3ccccc3C2)cc1-c1ccc(Cl)cc1` [Example 358], the IC50 is less than 100 nM.

For `Cc1cccc(CCOc2cc(C(=O)NC3(C(=O)O)Cc4ccccc4C3)ccc2OCCC(F)(F)F)c1` [Example 260], the IC50 lay in the range of 100 to 1000 nM.

For `COCc1ccccc1-c1cc(C(=O)NC2(C(=O)O)Cc3ccccc3C2)ccc1OC` [Example 316], the IC50 lay in the range of 100 to 1000 nM.

For the compound `CCOC(=O)N1CCN(CCOc2cc(C(=O)NC3(C(=O)O)Cc4ccccc4C3)ccc2OC)CC1` [Example 67], the IC50 was 1000 to 30000 nM.

As for `COc1ncc(C(=O)NC2(C(=O)O)Cc3ccccc3C2)cc1OCCc1cccc(CCO)c1` [Example 275, 2-[(5-{2-[3-(2-Hydroxy-ethyl)-phenyl]-ethoxy}-6-methoxy-pyridine-3-carbonyl)-amino]-indane-2-carboxylic acid], the IC50 is less than 100 nM.

In the case of `Cc1cccc(CCOc2cc(C(=O)NC3(C(=O)O)Cc4ccccc4C3)ccc2OCC(=O)O)c1` [Example 271, 2-[4-Carboxymethoxy-3-(2-m-tolyl-ethoxy)-benzoylamino]-indane-2-carboxylic acid], the IC50 fell in the range of 100 to 1000 nM.

Consider `COc1ccc(C(=O)NC2(C(=O)O)Cc3ccccc3C2)cc1OCC1CCOC1` (stereo not drawn) [Example 38], for which the IC50 lay in the range of 1000 to 30000 nM.

Consider `Cc1cccc(CCOc2cc(C(=O)NC3(C(=O)O)Cc4ccccc4C3)ccc2OCCO)c1` [Example 270, 2-[4-(2-Hydroxy-ethoxy)-3-(2-m-tolyl-ethoxy)-benzoylamino]-indane-2-carboxylic acid], for which the IC50 was less than 100 nM.

As for `COc1ccc(C(=O)NC2(C(=O)O)Cc3ccccc3C2)cc1OCCc1cc(-c2ccc(Cl)cc2)no1` [Example 54], the IC50 is 1000 to 30000 nM.

Take `COc1ccc(C(=O)NC2(C(=O)O)Cc3ccccc3C2)cc1NCCc1cccc(C)c1` [Example 171, 2-[4-Methoxy-3-(2-m-tolyl-ethylamino)-benzoylamino]-indane-2-carboxylic acid]: the IC50 is less than 100 nM.

`Cc1cccc(CCOc2cc(C(=O)NC3(C(=O)O)Cc4ccccc4C3)ccc2NC(C)C)c1` [Example 166, 2-[4-Isopropylamino-3-(2-m-tolyl-ethoxy)-benzoylamino]-indane-2-carboxylic acid]: the IC50 is 100 to 1000 nM.

Take `COc1ccc(C(=O)NC2(C(=O)O)Cc3ccccc3C2)cc1OCCCCC(C)C` [Example 59]: the IC50 was in the range of 1000 to 30000 nM.

Turning to `COc1cc(C(=O)NC2(C(=O)O)Cc3ccccc3C2)ccc1OCCc1cccc(Cl)c1` [Example 161, 2-{4-[2-(3-Chloro-phenyl)-ethoxy]-3-methoxy-benzoylamino}-indane-2-carboxylic acid], the IC50 fell in the range of 1000 to 30000 nM.

Consider `COc1ccc(C(=O)NC2(C(=O)O)Cc3ccccc3C2)cc1-c1cccc(C(F)(F)F)c1F` [Example 348], for which the IC50 is less than 100 nM.

Turning to `COc1ccc(C(=O)NC2(C(=O)O)Cc3ccccc3C2)cc1OCCCC1CCCCC1` [Example 61], the IC50 lay within 1000 to 30000 nM.
